The record followed here is patent US7423159B2, “Agent for preventing or treating neuropathy” (Takeda Pharmaceutical Company Limited, priority 2002, dated 2008).

As to `Cc1nnc(Cc2ccc(NC(=O)/C=C/c3cnn(C)c3-c3ccc(F)cc3)cc2)o1` [Example 136, (2E)-3-[5-(4-fluorophenyl)-1-methyl-1H-pyrazol-4-yl]-N-{4-[(5-methyl-1,3,4-oxadiazol-2-yl)methyl]phenyl}acrylamide], the melting point lay in the range of 151 to 152 °C. As for `CCOP(=O)(Cc1ccc(NC(=O)/C=C/c2nn(C)cc2-c2ccc(F)cc2)cc1)OCC`, the figure is 203 to 204 °C.

Molecule `COP(=O)(Cc1ccc(NC(=O)/C=C/c2cnn(C)c2-c2cccc(Cl)c2)cc1)OC` gave a melting point of 248 to 249 °C.

Turning to `CCn1ncc(/C=C/C(=O)Nc2ccc(CP(=O)(OC)OC)cc2)c1-c1ccc(F)cc1`, the melting point lay within 187 to 189 °C.

On to `CCn1nnc(Cc2ccc(NC(=O)/C=C/c3cnn(C)c3-c3ccc(F)cc3)cc2)n1` [Example 104, (2E)-N-{4-[(2-Ethyl-2H-tetrazol-5-yl)methyl]phenyl}-3-[5-(4-fluorophenyl)-1-methyl-1H-pyrazol-4-yl]acrylamide], for which the melting point was 187 to 188 °C.

For `Cn1ncc(/C=C/C(=O)Nc2ccc(Cc3nnco3)cc2)c1-c1ccc(F)cc1` [Example 129, (2E)-3-[5-(4-Fluorophenyl)-1-methyl-1H-pyrazol-4-yl]-N-[4-(1,3,4-oxadiazol-2-ylmethyl)phenyl]acrylamide], the melting point is 223 to 224 °C.

The molecule `CC(C)c1nccn1Cc1ccc(NC(=O)/C=C/c2cnn(C)c2-c2ccc(F)cc2)cc1` [Example 162, (2E)-3-[5-(4-Fluorophenyl)-1-methyl-1H-pyrazol-4-yl]-N-{4-[(2-isopropyl-1H-imidazol-1-yl)methyl]phenyl}acrylamide] registered a melting point of 271 to 272 °C. `CCOP(=O)(Cc1ccc(NC(=O)/C=C/c2cnn(C)c2-c2ccc(C)cc2)cc1)OCC` came in with a melting point of 243 to 245 °C. In the case of `COP(=O)(Cc1ccc(NC(=O)/C=C/c2cnn(C)c2-c2cccc(F)c2)cc1)OC`, the melting point is 224 to 226 °C. For `CC[S+]([O-])Cc1ccc(NC(=O)/C=C/c2cnn(C)c2-c2ccc(F)cc2)cc1` (centres unmarked) [Example 216, (2E)-N-{4-[(Ethylsulfinyl)methyl]phenyl}-3-[5-(4-fluorophenyl)-1-methyl-1H-pyrazol-4-yl]acrylamide] the value was 228 to 229 °C; for `COP(=O)(Cc1ccc(NC(=O)/C=C/c2cnn(C)c2-c2ccc(C)cc2)cc1)OC`, 207 to 209 °C. For `Cn1ncc(/C=C/C(=O)Nc2ccc([S+](C)[O-])cc2)c1-c1ccc(F)cc1` (centres unmarked) [Example 217, (2E)-3-[5-(4-Fluorophenyl)-1-methyl-1H-pyrazol-4-yl]-N-[4-(methylsulfinyl)phenyl]acrylamide] the value was 260 to 261 °C; for `Cn1ncc(/C=C/C(=O)Nc2ccc(C(=O)O)cc2)c1-c1ccc(F)cc1` [Example 234, 4-({(2E)-3-[5-(4-fluorophenyl)-1-methyl-1H-pyrazol-4-yl]prop-2-enoyl}amino)benzoic acid], 291 to 292 °C; for `CCC(=O)NCc1ccc(NC(=O)/C=C/c2cnn(C)c2-c2ccc(F)cc2)cc1` [Example 138, (2E)-3-[5-(4-fluorophenyl)-1-methyl-1H-pyrazol-4-yl]-N-{4-[(propionylamino)methyl]phenyl}acrylamide], 271 to 272 °C. For `Cn1ncc(/C=C/C(=O)Nc2ccccc2CO)c1-c1ccc(F)cc1` [Example 184, (2E)-3-[5-(4-Fluorophenyl)-1-methyl-1H-pyrazol-4-yl]-N-[2-(hydroxymethyl)phenyl]acrylamide] the value was 119 to 120 °C; for `CCSCc1ccc(NC(=O)/C=C/c2cnn(C)c2-c2ccc(F)cc2)cc1` [Example 210, (2E)-N-{4-[(Ethylthio)methyl]phenyl}-3-[5-(4-fluorophenyl)-1-methyl-1H-pyrazol-4-yl]acrylamide], 157 to 158 °C; for `Cn1ncc(/C=C/C(=O)Nc2ccc(CCn3cccn3)cc2)c1-c1ccc(F)cc1` [Example 186, (2E)-3-[5-(4-Fluorophenyl)-1-methyl-1H-pyrazol-4-yl]-N-{4-[2-(1H-pyrazol-1-yl)ethyl]phenyl}acrylamide], 205 to 206 °C.

In turn, `CSc1ccc(NC(=O)/C=C/c2cnn(C)c2-c2ccc(F)cc2)cc1` [Example 204, (2E)-3-[5-(4-Fluorophenyl)-1-methyl-1H-pyrazol-4-yl]-N-[4-(methylthio)phenyl]acrylamide] returned a melting point of 164 to 165 °C. As for `COP(=O)(Cc1ccc(NC(=O)/C=C/c2cnn(C)c2-c2cccs2)cc1)OC`, the figure is 247 to 248 °C. As for `COP(=O)(Cc1ccc(NC(=O)/C=C/c2cnn(C)c2-c2ccoc2)cc1)OC`, the figure is 176 to 177 °C; as for `Cn1ncc(/C=C/C(=O)Nc2ccc(Cc3ccccn3)cc2)c1-c1ccc(F)cc1` [Example 96, (2E)-3-[5-(4-Fluorophenyl)-1-methyl-1H-pyrazol-4-yl]-N-[4-(pyridin-2-ylmethyl)phenyl]acrylamide], 215 to 216 °C. The molecule `Cn1ncc(/C=C/C(=O)Nc2ccc(Cc3nc4c(s3)CCCC4)cc2)c1-c1ccc(F)cc1` [Example 124, (2E)-3-[5-(4-Fluorophenyl)-1-methyl-1H-pyrazol-4-yl]-N-[4-(4,5,6,7-tetrahydro-1,3-benzothiazol-2-ylmethyl)phenyl]acrylamide] came in with a melting point of 205 to 206 °C. As for `Cn1nnnc1Cc1ccc(NC(=O)/C=C/c2cnn(C)c2-c2ccc(F)cc2)cc1` [Example 101, (2E)-3-[5-(4-Fluorophenyl)-1-methyl-1H-pyrazol-4-yl]-N-{4-[(1-methyl-1H-tetrazol-5-yl)methyl]phenyl}acrylamide], the figure is 243 to 244 °C. For `Cn1ncc(/C=C/C(=O)Nc2ccc(CCc3nnco3)cc2)c1-c1ccc(F)cc1` [Example 89, (2E)-3-[5-(4-Fluorophenyl)-1-methyl-1H-pyrazol-4-yl]-N-{4-[2-(1,3,4-oxadiazol-2-yl)ethyl]phenyl}acrylamide] the value was 177 to 178 °C; for `CCOP(=O)(Cc1ccc(NC(=O)/C=C/c2cnn(C)c2-c2cccnc2)cc1)OCC`, 211 to 214 °C. For `CCc1nnc(CCc2ccc(NC(=O)/C=C/c3cnn(C)c3-c3ccc(F)cc3)cc2)o1` [Example 88, (2E)-N-{4-[2-(5-Ethyl-1,3,4-oxadiazol-2-yl)ethyl]phenyl}-3-[5-(4-fluorophenyl)-1-methyl-1H-pyrazol-4-yl]acrylamide] the value was 167 to 168 °C. Consider `COCc1ccc(NC(=O)/C=C/c2cnn(C)c2-c2ccc(F)cc2)cc1` [Example 209, (2E)-3-[5-(4-Fluorophenyl)-1-methyl-1H-pyrazol-4-yl]-N-[4-(methoxymethyl)phenyl]acrylamide], for which the melting point lay in the range of 170 to 171 °C. For `COP(=O)(Cc1ccc(NC(=O)/C=C/c2cnn(C)c2-c2ccc(C(F)(F)F)cc2)cc1)OC` the value was 212 to 213 °C; for `Cn1ncc(/C=C/C(=O)Nc2ccc(CSc3ccccc3)cc2)c1-c1ccc(F)cc1` [Example 212, (2E)-3-[5-(4-Fluorophenyl)-1-methyl-1H-pyrazol-4-yl]-N-{4-[(phenylthio)methyl]phenyl}acrylamide], 197 to 198 °C. For `CCOP(=O)(Cc1ccc(NC(=O)/C=C/c2cnn(C)c2-c2ccco2)cc1)OCC` the value was 195 to 196 °C; for `CC(=O)Nc1ccc(NC(=O)/C=C/c2cnn(C)c2-c2ccc(F)cc2)cc1` [Example 166, (2E)-N-[4-(Acetylamino)phenyl]-3-[5-(4-fluorophenyl)-1-methyl-1H-pyrazol-4-yl]acrylamide], 281 to 282 °C; for `CCOP(=O)(Cc1ccc(NC(=O)/C=C/c2cnn(C)c2C)cc1)OCC`, 228 to 230 °C.

Take `CCOP(=O)(Cc1ccc(NC(=O)CCc2cnn(C)c2-c2ccc(F)cc2)cc1)OCC`: the melting point was 143 to 144 °C. For `Cn1ncc(/C=C/C(=O)Nc2ccc(Cn3nc4ccccc4n3)cc2)c1-c1ccc(F)cc1` [Example 179, (2E)-N-[4-(2H-1,2,3-Benzotriazol-2-ylmethyl)phenyl]-3-[5-(4-fluorophenyl)-1-methyl-1H-pyrazol-4-yl]acrylamide] the value was 222 to 223 °C. For `Cn1ncc(/C=C/C(=O)Nc2ccc(CS(=O)(=O)c3c[nH]nn3)cc2)c1-c1ccc(F)cc1` [Example 227, (2E)-3-[5-(4-Fluorophenyl)-1-methyl-1H-pyrazol-4-yl]-N-{4-[(1H-1,2,3-triazol-4-ylsulfonyl)methyl]phenyl}acrylamide] the value was 204 to 206 °C; for `CCn1nc(Cc2ccc(NC(=O)/C=C/c3cnn(C)c3-c3ccc(F)cc3)cc2)oc1=O` [Example 120, (2E)-N-{4-[(4-Ethyl-5-oxo-4,5-dihydro-1,3,4-oxadiazol-2-yl)methyl]phenyl}-3-[5-(4-fluorophenyl)-1-methyl-1H-pyrazol-4-yl]acrylamide], 149 to 150 °C; for `CC(C)CC(=O)NCc1ccc(NC(=O)/C=C/c2cnn(C)c2-c2ccc(F)cc2)cc1` [Example 141, (2E)-3-[5-(4-Fluorophenyl)-1-methyl-1H-pyrazol-4-yl]-N-(4-{[(3-methylbutanoyl)amino]methyl}phenyl)acrylamide], 226 to 227 °C. As for `CCN1C(=O)SC(Cc2ccc(NC(=O)/C=C/c3cnn(C)c3-c3ccc(F)cc3)cc2)C1=O` (centres unmarked) [Example 111, (2E)-N-{4-[(3-Ethyl-2,4-dioxo-1,3-thiazolidin-5-yl)methyl]phenyl}-3-[5-(4-fluorophenyl)-1-methyl-1H-pyrazol-4-yl]acrylamide], the figure is 214 to 215 °C; as for `CC(=O)NCc1ccc(NC(=O)/C=C/c2cnn(C)c2-c2ccc(F)cc2)cc1` [Example 189, (2E)-N-{4-[(Acetylamino)methyl]phenyl}-3-[5-(4-fluorophenyl)-1-methyl-1H-pyrazol-4-yl]acrylamide], 233 to 234 °C. In turn, `CCn1nnnc1Cc1ccc(NC(=O)/C=C/c2cnn(C)c2-c2ccc(F)cc2)cc1` [Example 103, (2E)-N-{4-[(1-Ethyl-1H-tetrazol-5-yl)methyl]phenyl}-3-[5-(4-fluorophenyl)-1-methyl-1H-pyrazol-4-yl]acrylamide] returned a melting point of 206 to 207 °C. For `CCOP(=O)(Cc1ccc(NC(=O)/C=C/c2cn[nH]c2-c2ccc(F)cc2)cc1)OCC` the value was 181 to 182 °C.

By melting point is commonly meant the temperature, or range, at which the solid turns liquid.
